# According to paper PMC8840619, “Conjugation of Palbociclib with MHI-148 Has an Increased Cytotoxic Effect for Breast Cancer Cells and an Altered Mechanism of Action” (Molecules, 2022):
# Read-outs that look alike come from different tables or passages of the source.
# What was measured:
# [1] = system: MCF-7; assay: WST-1 cell viability assay; format: cell-based, human; conditions: for IC50: 3 days of treatment, mean ± SEM; for EC50: MCF7, Supplementary Table S1
# Procedure: (§1) As described previously, 3000 cells per well were seeded in 96-well plates and incubated in the presence of varying concentrations of drugs for three days. Cell proliferation was measured by thymidine uptake assay, cell growth by sulforhodamine B (SRB) colorimetric assay, and cell viability by WST-1 assay, as previously described.
# (§2) For viability, […] activity was measured using a water-soluble tetrazolium salt (WST-1) (purchased from Roche, Basel, Switzerland) after drug treatment for 3 days. The stable tetrazolium salt WST-1 is cleaved to a soluble formazan by a complex cellular mechanism that occurs primarily at the cell surface. This bio-reduction is largely dependent on the glycolytic production of NAD(P)H in viable cells. Therefore, the amount of formazan dye formed directly correlates with the number of metabolically active cells in the culture.
# [2] = system: MDA-MB-231; assay: WST-1 cell viability assay; format: cell-based, human; conditions: for IC50: 3 days of treatment, mean ± SEM; for EC50: Supplementary Table S1
# Procedure: as §1, §2
# [3] = system: HEK293; assay: WST-1 cell viability assay; format: cell-based, human; conditions: for IC50: 3 days of treatment, mean ± SEM; for EC50: Supplementary Table S1
# Procedure: as §1, §2
# [4] = system: 51D1.3; assay: [3H]-thymidine incorporation cell proliferation assay; format: cell-based, Chinese hamster; conditions: 3 days of treatment, mean ± SEM
# Procedure: as §1
# (§3) Briefly, for the proliferation assay, [^3H]-thymidine (0.04 μCi) was added to each well and plates were incubated for 5 h, after which the cells were harvested onto glass–fiber filters using an automated TomTec harvester. Filters were incubated with Betaplate Scint and [^3H]-thymidine incorporation was measured in a Trilux/Betaplate counter. Cell proliferation was determined by the percentage incorporation of [^3H]-thymidine.
# [5] = system: 51D1; assay: as above; format: cell-based, Chinese hamster; conditions: 3 days of treatment, mean ± SEM
# Procedure: as §1, §3
# [6] = system: MCF-7; assay: SRB cell growth assay; format: cell-based, human; conditions: for IC50: 3 days of treatment, mean ± SEM
# Procedure: as §1
# (§4) The SRB colorimetric assay, which is based on the measurement of cellular protein content, was used to measure cell density. After drug treatment for 3 days, cells were fixed with 10% (wt/vol) trichloroacetic acid and stained for 30 min, and the excess dye was removed by washing repeatedly with 1% (vol/vol) acetic acid. The protein-bound dye was dissolved in Tris base solution (10 mM) for optical density determination at 510 nm using a microplate reader. Optimal cell densities were previously determined to select initial cell densities that ensured that cells were in logarithmic phase for the experiments.
# [7] = system: MDA-MB-231; assay: SRB cell growth assay; format: cell-based, human; conditions: for IC50: 3 days of treatment, mean ± SEM
# Procedure: as §1, §4
# [8] = system: HEK293; assay: SRB cell growth assay; format: cell-based, human; conditions: 3 days of treatment, mean ± SEM
# Procedure: as §1, §4
# [9] = system: 51D1.3; assay: SRB cell growth assay; format: cell-based, Chinese hamster; conditions: 3 days of treatment, mean ± SEM
# Procedure: as §1, §4
# [10] = system: 51D1; assay: SRB cell growth assay; format: cell-based, Chinese hamster; conditions: 3 days of treatment, mean ± SEM
# Procedure: as §1, §4
# [11] = Absorbance spectra in DMSO; format: physicochemical; conditions: 25 °C
# Procedure: The absorbance and fluorescence emission spectra of up to 7 three-fold serial dilutions of MHI-148 and MHI-palbociclib in DMSO, ranging from […], were acquired at 25 °C.
# • (a) Absorbance spectra of the test compound solutions (200 μL) plated in a 96-well polystyrene flat-bottom transparent microplate were acquired on a quad monochromator-equipped microplate reader Enspire 2300 (Perkin-Elmer; Singapore) from 650 nm to 900 nm in 1 nm increments. • (b) Fluorescence emission spectra of the compound solutions in a 2 mL semi-micro quartz cuvette were measured on a FP-8600 spectrofluorometer (JASCO; Japan) between 790 nm and 850 nm in 1 nm increments at the excitation wavelength of 780 nm. The fluorescence emission was measured at a high sensitivity of the instrument, with an excitation and emission bandwidth of 5 nm, a 50 ms response time, and a scan speed of 1000 nm per minute.
# [12] = system: 51D1.3; assay: WST-1 cell viability assay; format: cell-based, Chinese hamster; conditions: for IC50: 3 days of treatment, mean ± SEM; for EC50: Supplementary Table S1
# Procedure: as §1, §2
# [13] = system: 51D1; assay: WST-1 cell viability assay; format: cell-based, Chinese hamster; conditions: for IC50: 3 days of treatment, mean ± SEM; for EC50: Supplementary Table S1
# Procedure: as §1, §2
# [14] = system: MCF-7; assay: [3H]-thymidine incorporation cell proliferation assay; format: cell-based, human; conditions: 3 days of treatment, mean ± SEM
# Procedure: as §1, §3
# [15] = system: MDA-MB-231; assay: as above; format: cell-based, human; conditions: for IC50: MDA-MB-231, 3 days of treatment, mean ± SEM
# Procedure: as §1, §3
# [16] = system: HEK293; assay: as above; format: cell-based, human; conditions: 3 days of treatment, mean ± SEM
# Procedure: as §1, §3
# [17] = system: MDA-MB-231 cells; assay: Propidium iodide staining of dying cells; format: cell-based, human; conditions: 1 µM for 24 h
# Procedure: Cells (1 × 10^6) were incubated with drugs for 24 h. Cells were next incubated with 50 μg/mL PI in growth media for 15 min at room temperature and protected from light. Cell death was monitored by fluorescence staining of DNA by PI and analysed by fluorescent microscopy using a Floid imaging station (460× magnification).
# [18] = system: MDA-MB-231 cells; assay: Flow cytometry cell cycle analysis (DNA content, PI); format: cell-based, human; conditions: 500 nM for 24 h, untreated cells 48%
# Procedure: As previously described, cells (1 × 10^6 cells) were grown in six-well plates and incubated with drugs for 24 h. Cells were harvested, washed with 1% FBS/phosphate-buffered saline (PBS), resuspended in 200 μL of PBS, fixed in 2 mL of ice-cold 100% ethanol, and stored overnight at −20 °C. The cells were washed and resuspended in 1 mL of 1% FBS/PBS, containing RNase (1 μg/mL) and propidium iodide (PI) (10 μg/mL), for 30 min at room temperature. DNA content was determined using […] by PI staining based on a total of 25,000 acquired events on a BD Biosciences Accuri C6 flow cytometer, and cell cycle distribution was analysed using FlowJo version 10.7.2.
# [19] = Behaviour in aqueous environments (solubility observation); format: physicochemical; conditions: high concentration
# [20] = system: MDA-MB-231; conditions: data from Finn et al.
# [21] = system: MDA-MB-231; design: method as in earlier work; conditions: different proliferation assay, ref 21 (Finn et al.), read-out: IC50 proliferation, previously reported; cited from earlier work
# [22] = system: MCF-7; design: method as in earlier work; conditions: different proliferation assay, ref 21 (Finn et al.), read-out: IC50 proliferation, previously reported; cited from earlier work
# [23] = system: MDA-MB-231; design: method as in PMID 30370249; conditions: read-out: IC50 proliferation; cited from earlier work
# [24] = system: MCF-7; design: method as in PMID 30370249; conditions: read-out: IC50 proliferation; cited from earlier work
structure (smiles),measurement,setting,value
"CC1(C)C(/C=C/C2=C(Cl)C(=C/C=C3/N(CCCCCC(=O)O)c4ccccc4C3(C)C)/CCC2)=[N+](CCCCCC(=O)O)c2ccccc21.[Br-] [MHI-148, 1-(5-Carboxypentyl)-2-((E)-2-((E)-3-(2-((E)-1-(5-carboxypentyl)-3,3-dimethylindolin-2-ylidene)ethylidene)-2-chlorocyclohex-1-en-1-yl)vinyl)-3,3-dimethyl-3H-indol-1-ium bromide]",IC50,"[1]; Homo sapiens, MCF7, 72 h",> 2500 nM
same,EC50,[1]; Homo sapiens,> 2500 nM
same,IC50,"[2]; Homo sapiens, 72 h",> 2500 nM
same,EC50,[2]; Homo sapiens,> 2500 nM
same,IC50,"[3]; Homo sapiens, 72 h",> 2500 nM
same,EC50,[3]; Homo sapiens,> 2500 nM
same,IC50,"[4]; Cricetulus griseus, 72 h",> 2500 nM
same,IC50,"[5]; Cricetulus griseus, 72 h",> 2500 nM
same,IC50,"[6]; Homo sapiens, MCF7, 72 h",> 2500 nM
same,IC50,"[7]; Homo sapiens, 72 h",> 2500 nM
same,IC50,"[8]; Homo sapiens, 72 h",> 2500 nM
same,IC50,"[9]; Cricetulus griseus, 72 h",> 2500 nM
same,IC50,"[10]; Cricetulus griseus, 72 h",> 2500 nM
same,Absorbance λmax,[11],797 nm
same,IC50,"[12]; Cricetulus griseus, 72 h",> 2500 nM
same,EC50,[12]; Cricetulus griseus,> 2500 nM
same,IC50,"[13]; Cricetulus griseus, 72 h",> 2500 nM
same,EC50,[13]; Cricetulus griseus,> 2500 nM
same,IC50,"[14]; Homo sapiens, MCF7, 72 h",> 2500 nM
same,IC50,"[15]; Homo sapiens, 72 h",> 2500 nM
same,IC50,"[16]; Homo sapiens, 72 h",> 2500 nM
CC(=O)c1c(C)c2cnc(Nc3ccc(N4CCN(C(=O)CCCCCN5/C(=C/C=C6\CCCC(/C=C/C7=[N+](CCCCCC(=O)N8CCN(c9ccc(Nc%10ncc%11c(C)c(C(C)=O)c(=O)n(C%12CCCC%12)c%11n%10)nc9)CC8)c8ccccc8C7(C)C)=C6Cl)C(C)(C)c6ccccc65)CC4)cn3)nc2n(C2CCCC2)c1=O.[Br-] [MHI-palbociclib],PI staining of dying cells (cytotoxic effect),[17],increased PI staining and reduced cell number
same,IC50,[1],845 ± 34.3 nM
same,IC50,[2],1020 ± 150 nM
same,EC50,[2],872 nM
same,IC50,[3],418 ± 68.3 nM
same,EC50,[3],544 nM
same,IC50,[4],217 ± 8.7 nM
same,IC50,[5],205 ± 4.6 nM
same,Growth inhibitory effect compared with combination of unconjugated palbociclib and MHI-148,"[6]; 2.5 μM, 3 days, t-test p = 0.002",significantly greater
same,IC50,[6],506 ± 93.6 nM
same,Growth inhibitory effect compared with combination of unconjugated palbociclib and MHI-148,"[7]; 2.5 μM, 3 days, t-test p = 0.003",significantly greater
same,IC50,[7],683 ± 29.6 nM
same,IC50,[8],171 ± 7.9 nM
same,G1 cell cycle arrest (proportion of cells in G1),[18],55%
same,IC50,[9],164 ± 6.8 nM
same,IC50,[10],187 ± 3.9 nM
same,Behaviour in aqueous environments,[19],rapidly precipitates in aqueous environments
same,Absorbance λmax,[11],800 nm
same,IC50,[12],401 ± 89 nM
same,EC50,[12],471 nM
same,IC50,[13],197 ± 15.7 nM
same,EC50,[13],265 nM
same,IC50,[14],215.4 ± 0.8 nM
same,IC50,[15],170 ± 9.7 nM
same,IC50,[16],170 ± 4.1 nM
CC(=O)c1c(C)c2cnc(Nc3ccc(N4CCNCC4)cn3)nc2n(C2CCCC2)c1=O [Palbociclib],Fold difference of the IC50 of the two cell lines (MDA-MB-231 vs MCF-7),[20],2.9 fold
same,PI staining of dying cells (cytotoxic effect),[17],minimal PI staining
same,IC50,"[1]; Homo sapiens, MCF7, 72 h",> 2500 nM
same,EC50,[1]; Homo sapiens,> 2500 nM
same,IC50,"[2]; Homo sapiens, 72 h",> 2500 nM
same,EC50,[2]; Homo sapiens,> 2500 nM
same,IC50,"[3]; Homo sapiens, 72 h",> 2500 nM
same,EC50,[3]; Homo sapiens,> 2500 nM
same,IC50,"[6]; Homo sapiens, MCF7, 72 h",> 2500 nM
same,IC50,"[7]; Homo sapiens, 72 h",> 2500 nM
same,IC50,"[8]; Homo sapiens, 72 h",> 2500 nM
same,G1 cell cycle arrest (proportion of cells in G1),[18],87%
same,IC50,"[9]; Cricetulus griseus, 72 h",> 2500 nM
same,IC50,"[10]; Cricetulus griseus, 72 h",> 2500 nM
same,IC50,"[12]; Cricetulus griseus, 72 h",> 2500 nM
same,EC50,[12]; Cricetulus griseus,> 2500 nM
same,IC50,"[13]; Cricetulus griseus, 72 h",> 2500 nM
same,EC50,[13]; Cricetulus griseus,> 2500 nM
same,IC50,[21],432 ± 16.1 nM
same,IC50,"[14]; Homo sapiens, MCF7, 72 h",29.1 ± 8.6 nM
same,IC50,"[15]; Homo sapiens, 72 h",72.2 ± 2.8 nM
same,Fold difference of the IC50 of the two cell lines (MDA-MB-231 vs MCF-7),"[15]; thymidine incorporation, own data",2.5 fold
same,IC50,[22],148 ± 25.7 nM
CC(=O)O[C@H]1C(=O)[C@@]2(C)[C@H]([C@H](OC(=O)c3ccccc3)[C@]3(O)C[C@H](OC(=O)[C@H](O)[C@@H](NC(=O)c4ccccc4)c4ccccc4)C(C)=C1C3(C)C)[C@]1(OC(C)=O)CO[C@@H]1C[C@@H]2O [paclitaxel],IC50,[23],5.8 ± 1.13 nM
same,IC50,[24],9.05 ± 0.04 nM
